Data set [1] concerns the target T1, hOATP1B3 (Homo sapiens, UniProt Q9NPD5).
T1 sequence (Q9NPD5 1-702): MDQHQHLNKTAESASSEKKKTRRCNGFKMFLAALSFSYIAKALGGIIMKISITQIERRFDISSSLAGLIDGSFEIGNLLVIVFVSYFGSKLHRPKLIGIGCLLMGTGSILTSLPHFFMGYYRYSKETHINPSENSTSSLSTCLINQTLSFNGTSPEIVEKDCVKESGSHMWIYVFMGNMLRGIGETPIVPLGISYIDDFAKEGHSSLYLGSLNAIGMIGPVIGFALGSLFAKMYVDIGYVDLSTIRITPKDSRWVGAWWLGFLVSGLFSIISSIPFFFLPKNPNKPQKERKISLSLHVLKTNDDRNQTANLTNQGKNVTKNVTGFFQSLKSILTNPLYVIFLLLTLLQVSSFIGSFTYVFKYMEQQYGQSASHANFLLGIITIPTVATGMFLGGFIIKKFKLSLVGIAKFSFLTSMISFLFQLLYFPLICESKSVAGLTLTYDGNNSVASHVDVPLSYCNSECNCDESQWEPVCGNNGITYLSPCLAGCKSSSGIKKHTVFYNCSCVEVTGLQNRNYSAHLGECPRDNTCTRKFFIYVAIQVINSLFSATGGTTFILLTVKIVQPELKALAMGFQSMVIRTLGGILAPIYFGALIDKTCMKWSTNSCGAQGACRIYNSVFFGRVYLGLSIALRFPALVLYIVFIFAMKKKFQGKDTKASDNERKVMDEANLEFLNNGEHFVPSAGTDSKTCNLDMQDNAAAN
The experiment in a line: Inhibition of OATP1B3-mediated hydroxyurea accumulation in oocytes. The following applies: for Hydroxyurea accumulation in OATP1B3 oocytes, % of accumulation without inhibitor: 1mM inhibitor co-incubation, in 1% DMSO. In kind it is cell-based.

Data set [2] in a line: Parallel artificial membrane permeability assay. The following applies: 4% lipid bilayer; 16-hours incubation at room temperature.
For data set [3] the following is noted: PAMPA. (In general: In PAMPA a lipid-coated filter parts donor from acceptor wells.)
Data set [4] addresses T2, human OCTN2 (Homo sapiens, UniProt O76082).
T2 sequence (O76082 1-557): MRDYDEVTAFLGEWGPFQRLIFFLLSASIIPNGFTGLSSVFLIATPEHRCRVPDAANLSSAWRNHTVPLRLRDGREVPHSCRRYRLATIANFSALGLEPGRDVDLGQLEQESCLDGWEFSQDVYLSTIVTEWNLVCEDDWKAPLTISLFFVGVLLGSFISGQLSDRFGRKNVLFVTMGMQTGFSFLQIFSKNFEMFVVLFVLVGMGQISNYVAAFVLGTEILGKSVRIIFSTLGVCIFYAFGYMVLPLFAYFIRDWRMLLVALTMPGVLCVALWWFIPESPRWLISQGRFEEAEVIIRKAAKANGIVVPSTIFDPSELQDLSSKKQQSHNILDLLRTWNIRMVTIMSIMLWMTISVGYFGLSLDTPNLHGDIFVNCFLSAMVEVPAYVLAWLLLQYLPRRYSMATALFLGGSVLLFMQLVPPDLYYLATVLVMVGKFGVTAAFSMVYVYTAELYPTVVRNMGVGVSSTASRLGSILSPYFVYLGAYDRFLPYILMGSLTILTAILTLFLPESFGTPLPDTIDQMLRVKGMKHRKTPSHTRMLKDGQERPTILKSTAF
The data set can be described thus: Hydroxyurea uptake in HEK293 cells overexpressing hOCTN2. In kind it is cell-based. The following applies: percentage of control cells (100%).

For data set [5], the target named is T3, human OCTN1 (Homo sapiens, UniProt Q9H015).
T3 sequence (Q9H015 1-551): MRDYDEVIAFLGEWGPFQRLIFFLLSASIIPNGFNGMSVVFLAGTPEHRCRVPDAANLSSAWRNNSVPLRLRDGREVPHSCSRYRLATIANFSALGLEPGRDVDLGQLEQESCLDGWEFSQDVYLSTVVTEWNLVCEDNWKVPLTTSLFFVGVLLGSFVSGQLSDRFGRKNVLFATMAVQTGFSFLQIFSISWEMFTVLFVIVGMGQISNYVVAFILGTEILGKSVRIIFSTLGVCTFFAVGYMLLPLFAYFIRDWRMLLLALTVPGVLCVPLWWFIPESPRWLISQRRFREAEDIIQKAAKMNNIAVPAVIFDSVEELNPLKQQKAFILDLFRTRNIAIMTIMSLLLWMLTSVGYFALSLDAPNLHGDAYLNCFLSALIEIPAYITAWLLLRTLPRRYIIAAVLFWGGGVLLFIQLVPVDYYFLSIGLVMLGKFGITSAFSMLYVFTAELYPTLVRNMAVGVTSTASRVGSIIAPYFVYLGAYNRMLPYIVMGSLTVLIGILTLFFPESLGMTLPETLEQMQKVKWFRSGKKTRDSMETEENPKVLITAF
The experiment in a line: Hydroxyurea uptake in HEK293 cells overexpressing hOCTN1. In kind it is cell-based. Conditions: percentage of control cells (100%).

The conditions of data set [6]: humans, oral; cited from earlier work.
The target of data set [7] is T4, UTB (Homo sapiens, UniProt Q13336).
T4 sequence (Q13336 1-389): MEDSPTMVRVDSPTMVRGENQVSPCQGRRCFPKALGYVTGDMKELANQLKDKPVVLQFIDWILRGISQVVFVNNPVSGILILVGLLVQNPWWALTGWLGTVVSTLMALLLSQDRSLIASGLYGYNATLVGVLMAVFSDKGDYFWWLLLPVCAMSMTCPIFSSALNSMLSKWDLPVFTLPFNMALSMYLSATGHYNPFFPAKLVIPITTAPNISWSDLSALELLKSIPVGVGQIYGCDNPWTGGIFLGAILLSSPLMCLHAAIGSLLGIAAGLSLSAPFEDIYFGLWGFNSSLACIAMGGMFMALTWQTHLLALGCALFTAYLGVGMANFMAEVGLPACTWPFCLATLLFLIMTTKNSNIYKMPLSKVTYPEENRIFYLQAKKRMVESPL
The experiment in a line: Transcellular transport assay in LLC-PK1 cells overexpressing UTB. The following applies: 1mM dimethylurea. In kind it is cell-based.

The values below come from paper PMC4739778 (Experimental hematology, 2011).

Like-named read-outs stand apart in the source and are kept apart here.

With `C[C@@H]1O[C@@H](O[C@H]2[C@H](Oc3cc(O)c4c(c3)O[C@H](c3ccc(O)cc3)CC4=O)O[C@H](CO)[C@@H](O)[C@@H]2O)[C@H](O)[C@H](O)[C@H]1O` [naringin], in data set [1], the “Hydroxyurea accumulation in OATP1B3 oocytes, % of accumulation without inhibitor” value is reported as 30%.
The same measure, in the same setting: the figure for `CO[C@H]1/C=C/O[C@@]2(C)Oc3c(C)c(O)c4c(O)c(c(/C=N/N5CCN(C)CC5)c(O)c4c3C2=O)NC(=O)/C(C)=C\C=C\[C@H](C)[C@H](O)[C@@H](C)[C@@H](O)[C@@H](C)[C@H](OC(C)=O)[C@@H]1C` [rifampin] is 30%.
As for `Cc1ncc2n1-c1ccc(Cl)cc1C(c1ccccc1F)=NC2` [midazolam], the “10 + logPe” value in data set [2] turned out to be 4.707.
The Tmax is the time at which the peak concentration occurs. For the compound `NC(=O)NO` [hydroxyurea], in data set [3], the “10 + logPe” value is 2.597 and the “estimated permeability rate (log Pe + 10)” value is recorded as 2.385. Besides, the “hydroxyurea uptake compared to controls” value in data set [4] was 113%. Besides, in data set [5], the “hydroxyurea uptake compared to controls” value is 130%. For the same compound, in data set [6], the Tmax was 1.22 h and the bioavailability result was “nearly complete”.
Turning to `CN(Cc1cnc2nc(N)nc(N)c2n1)c1ccc(C(=O)N[C@@H](CCC(=O)O)C(=O)O)cc1` [methotrexate], in data set [3] (16 h), the “10 + logPe” value worked out at 2.022. Besides, in data set [1] (1mM co-incubation in the absence of DMSO), the “lowering of hydroxyurea accumulation in OATP1B3 oocytes” value was determined as 50%.
With dimethylurea, in data set [7], the “effect on hydroxyurea transport” value was “marginally inhibited”.
`NC(N)=O` [urea]: in data set [3], the “10 + logPe” value was 2.712 and the “estimated permeability rate (log Pe + 10)” value is on record as 2.335.
